Results from patent US9556181B2, “Substituted pyrazolopyrimidinylamino-indazoles” (BAYER PHARMA AKTIENGESELLSCHAFT, priority 2013, dated 2017).

What follows are compounds tested against human full-length MKNK1 (Homo sapiens (Human), UniProt Q9BUB5, T344D) (assay: MKNK1 kinase high ATP assay (TR-FRET)). Settings: high ATP (2 mM final), 15 min preincubation with enzyme.
Format: biochemical
Protocol: MKNK1 Kinase High ATP Assay
MKNK1-inhibitory activity at high ATP of compounds of the present invention after their preincubation with MKNK1 was quantified employing the TR-FRET-based MKNK1 high ATP assay as described in the following paragraphs.
A recombinant fusion protein of Glutathione-S-Transferase (GST, N-terminally) and human full-length MKNK1 (amino acids 1-424 and T344D of accession number BAA 19885.1), expressed in insect cells using baculovirus expression system and purified via glutathione sepharose affinity chromatography, was purchased from Carna Biosciences (product no 02-145) and used as enzyme. As substrate for the kinase reaction the biotinylated peptide biotin-Ahx-IKKRKLTRRKSLKG (C-terminus in amide form) was used, which can be purchased e.g. from the company Biosyntan (Berlin-Buch, Germany).
For the assay 50 nL of a 100 fold concentrated solution of the test compound in DMSO was pipetted into a black low volume 384 well microtiter plate (Greiner Bio-One, Frickenhausen, Germany), 2 μL of a solution of MKNK1 in aqueous assay buffer [50 mM HEPES pH 7.5, 5 mM MgCl2, 1.0 mM dithiothreitol, 0.005% (v/v) Nonidet-P40 (Sigma)] was added and the mixture was incubated for 15 min at 22° C. to allow pre-binding of the test compounds to the enzyme before the start of the kinase reaction. Then the kinase reaction was started by the addition of 3 μL of a solution of adenosine-tri-phosphate (ATP, 3.3 mM=>final conc. in the 5 μL assay volume is 2 mM) and substrate (0.1 μM=>final conc. in the 5 μL assay volume is 0.06 μM) in assay buffer and the resulting mixture was incubated for a reaction time of 30 min at 22° C. The concentration of MKNK1 was adjusted depending of the activity of the enzyme lot and was chosen appropriate to have the assay in the linear range, typical concentrations were in the range of 0.003 μg/mL. The reaction was stopped by the addition of 5 μL of a solution of TR-FRET detection reagents (5 nM streptavidine-XL665 [Cisbio Bioassays, Codolet, France] and 1 nM anti-ribosomal protein S6 (pSer236)-antibody from Invitrogen [#44921G] and 1 nM LANCE EU-W1024 labeled ProteinG [Perkin-Elmer, product no. AD0071]) in an aqueous EDTA-solution (100 mM EDTA, 0.1% (w/v) bovine serum albumin in 50 mM HEPES pH 7.5).
The resulting mixture was incubated for 1 h at 22° C. to allow the formation of complex between the phosphorylated biotinylated peptide and the detection reagents. Subsequently the amount of phosphorylated substrate was evaluated by measurement of the resonance energy transfer from the Eu-chelate to the streptavidine-XL. Therefore, the fluorescence emissions at 620 nm and 665 nm after excitation at 350 nm were measured in a TR-FRET reader, e.g. a Rubystar (BMG Labtechnologies, Offenburg, Germany) or a Viewlux (Perkin-Elmer). The ratio of the emissions at 665 nm and at […] was taken as the measure for the amount of phosphorylated substrate. The data were normalised (enzyme reaction without inhibitor=0% inhibition, all other assay components but no enzyme=100% inhibition).

Sequence of human full-length MKNK1 (Q9BUB5 other isoform, or with tags, fused parts or gaps T344D): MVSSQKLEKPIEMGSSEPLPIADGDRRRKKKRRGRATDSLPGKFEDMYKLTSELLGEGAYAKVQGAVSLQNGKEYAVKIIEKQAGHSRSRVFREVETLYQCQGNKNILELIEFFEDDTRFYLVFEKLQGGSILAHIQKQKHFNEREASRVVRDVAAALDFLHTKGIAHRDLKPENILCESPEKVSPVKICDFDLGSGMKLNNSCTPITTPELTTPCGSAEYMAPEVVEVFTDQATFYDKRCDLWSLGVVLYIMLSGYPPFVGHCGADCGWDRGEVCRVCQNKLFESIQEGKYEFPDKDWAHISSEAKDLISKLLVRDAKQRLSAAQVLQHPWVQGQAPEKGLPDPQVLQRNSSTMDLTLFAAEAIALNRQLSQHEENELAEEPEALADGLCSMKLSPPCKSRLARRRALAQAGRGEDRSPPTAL

Compound	IC50 [nM]
c1nc(Nc2ccc3[nH]ncc3c2)c2cn[nH]c2n1 [Example 1, N-(1H-Indazol-5-yl)-1H-pyrazolo[3,4-d]pyrimidin-4-amine]	117
CC(C)Oc1cc2[nH]ncc2cc1Nc1ncnc2[nH]ncc12 [Example 3, N-[6-(Propan-2-yloxy)-1H-indazol-5-yl]-1H-pyrazolo[3,4-d]pyrimidin-4-amine]	531
COc1cc2[nH]ncc2cc1Nc1ncnc2[nH]nc(Br)c12 [Example 4, 3-Bromo-N-(6-methoxy-1H-indazol-5-yl)-1H-pyrazolo[3,4-d]pyrimidin-4-amine]	1
Fc1cc2[nH]ncc2cc1Nc1ncnc2[nH]nc(Br)c12 [Example 5, 3-Bromo-N-(6-fluoro-1H-indazol-5-yl)-1H-pyrazolo[3,4-d]pyrimidin-4-amine]	12
Brc1n[nH]c2ncnc(Nc3ccc4[nH]ncc4c3)c12 [Example 6, 3-Bromo-N-(1H-indazol-5-yl)-1H-pyrazolo[3,4-d]pyrimidin-4-amine]	14
COc1cc2[nH]ncc2cc1Nc1ncnc2[nH]nc(-c3ccccc3)c12 [Example 7, N-(6-methoxy-1H-indazol-5-yl)-3-phenyl-1H-pyrazolo[3,4-d]pyrimidin-4-amine]	3
Fc1cc2[nH]ncc2cc1Nc1ncnc2[nH]nc(-c3ccccc3)c12 [Example 8, N-(6-fluoro-1H-indazol-5-yl)-3-phenyl-1H-pyrazolo[3,4-d]pyrimidin-4-amine]	15
c1cncc(-c2n[nH]c3ncnc(Nc4ccc5[nH]ncc5c4)c23)c1 [Example 9, N-(1H-Indazol-5-yl)-3-(pyridin-3-yl)-1H-pyrazolo[3,4-d]pyrimidin-4-amine]	8
COc1cc2[nH]ncc2cc1Nc1ncnc2[nH]nc(-c3cccnc3)c12 [Example 10, N-(6-Methoxy-1H-indazol-5-yl)-3-(pyridin-3-yl)-1H-pyrazolo[3,4-d]pyrimidin-4-amine]	6
Fc1cc2[nH]ncc2cc1Nc1ncnc2[nH]nc(-c3cccnc3)c12 [Example 11, N-(6-fluoro-1H-indazol-5-yl)-3-(pyridin-3-yl)-1H-pyrazolo[3,4-d]pyrimidin-4-amine]	8
Fc1ccc(-c2n[nH]c3ncnc(Nc4ccc5[nH]ncc5c4)c23)cc1 [Example 12, 3-(4-Fluorophenyl)-N-(1H-indazol-5-yl)-1H-pyrazolo[3,4-d]pyrimidin-4-amine]	12
COc1cc2[nH]ncc2cc1Nc1ncnc2[nH]nc(-c3ccc(F)cc3)c12 [Example 13, 3-(4-Fluorophenyl)-N-(6-methoxy-1H-indazol-5-yl)-1H-pyrazolo[3,4-d]pyrimidin-4-amine]	2
Fc1ccc(-c2n[nH]c3ncnc(Nc4cc5cn[nH]c5cc4F)c23)cc1 [Example 14, N-(6-Fluoro-1H-indazol-5-yl)-3-(4-fluorophenyl)-1H-pyrazolo[3,4-d]pyrimidin-4-amine]	12
c1ccc(-c2n[nH]c3ncnc(Nc4ccc5[nH]ncc5c4)c23)cc1 [Example 15, N-(1H-Indazol-5-yl)-3-phenyl-1H-pyrazolo[3,4-d]pyrimidin-4-amine]	26
COc1cc2[nH]ncc2cc1Nc1ncnc2[nH]nc(-c3ccncc3)c12 [Example 16, N-(6-Methoxy-1H-indazol-5-yl)-3-(pyridin-4-yl)-1H-pyrazolo[3,4-d]pyrimidin-4-amine]	2
CC(C)Oc1cc2[nH]ncc2cc1Nc1ncnc2[nH]nc(Br)c12 [Example 17, 3-Bromo-N-(6-isopropoxy-1H-indazol-5-yl)-1H-pyrazolo[3,4-d]pyrimidin-4-amine]	1
CC(C)Oc1cc2[nH]ncc2cc1Nc1ncnc2[nH]nc(-c3ccccc3)c12 [Example 18, N-(6-Isopropoxy-1H-indazol-5-yl)-3-phenyl-1H-pyrazolo[3,4-d]pyrimidin-4-amine]	19
CC(C)Oc1cc2[nH]ncc2cc1Nc1ncnc2[nH]nc(-c3ccc(F)cc3)c12 [Example 19, 3-(4-Fluorophenyl)-N-(6-isopropoxy-1H-indazol-5-yl)-1H-pyrazolo[3,4-d]pyrimidin-4-amine]	26
CC(C)Oc1cc2[nH]ncc2cc1Nc1ncnc2[nH]nc(-c3cccnc3)c12 [Example 20, N-(6-Isopropoxy-1H-indazol-5-yl)-3-(pyridin-3-yl)-1H-pyrazolo[3,4-d]pyrimidin-4-amine]	63
CC(C)Oc1cc2[nH]ncc2cc1Nc1ncnc2[nH]nc(-c3ccncc3)c12 [Example 21, N-(6-Isopropoxy-1H-indazol-5-yl)-3-(pyridin-4-yl)-1H-pyrazolo[3,4-d]pyrimidin-4-amine]	27
